Reference: article PMC9320628, “Analysis of Structural Determinants of Peptide MS 9a-1 Essential for Potentiating of TRPA1 Channel” (Marine Drugs, 2022)
Read-outs that look alike come from different tables or passages of the source. Where a SMILES comes first, the peptide text is derived from it. Bridges are numbered along the chain shown (N, C = ends).

Legend:
TRPA1-expressing oocytes = settings: cited from earlier work
Experimental: Oocytes expressing rat TRPA1 (Q6RI86) channel were prepared as described previously. Experiments were approved by the Institutional Animal Care and Use Committee (IACUC) of the Shemyakin–Ovchinnikov Institute of Bioorganic Chemistry Russian Academy of Sciences (Protocol Number 267/2018; date of approval: 28 February 2019). Female frogs were anaesthetized with 0.17% solution of tricaine methane sulfonate (MS222) and oocytes were surgically removed. cRNA was synthesized using a HiScribe™ T7 High Yield RNA Synthesis Kit (New England Biolabs, Ipswich, MA, USA) according to the manufacturers’ ...

[1] = cited from earlier work
Description: We compared the efficacy of peptides Ms 9a-1, C-Ms, N-Ms, Ms 9a-2, and Ms 9a-3 in models of AITC- ...

[2] = target: T1, rat TRPA1 (Q6RI86) channel (Rattus norvegicus, UniProt Q6RI86); assay: Potentiation of diclofenac-induced TRPA1 currents, two-electrode recordings in Xenopus laevis oocytes; format: cell-based; settings: for Diclofenac-induced inward current potentiated up to (maximal, % of control) / EC50 / Diclofenac-induced outward current potentiated up to (maximal, % of control): oocytes expressing rat TRPA1, diclofenac 300 μM; for EC50: Ca2+-free solution, 22–24 °C, mean ± SD of 4–7 measurements, SD; for Maximal potentiating effect lower than that of Ms 9a-1: compared to Ms 9a-1, inward and outward currents
T1 construct: expressed in transfected cells; host or cells: Xenopus laevis oocytes injected with cRNA
Experimental: Peptide activity was measured in Xenopus laevis oocytes, heterologously expressing the TRPA1 channel (Figure 2 and Figure S2). Recordings occurred in repeated 4 s pulses of voltage ramp from −100 mV to 100 mV over 200 ms, whereby inward current was measured at −100 mV and outward at 100 mV.
Oocytes expressing rat TRPA1 (Q6RI86) channel were prepared as described previously. Experiments were approved by the Institutional Animal Care and Use Committee (IACUC) of the Shemyakin–Ovchinnikov Institute of Bioorganic Chemistry Russian Academy of Sciences (Protocol Number 267/2018; date of approval: 28 February 2019). Female frogs were anaesthetized with 0.17% solution of tricaine methane sulfonate (MS222) and oocytes were surgically removed. cRNA was synthesized using a HiScribe™ T7 High Yield RNA Synthesis Kit (New England Biolabs, Ipswich, MA, USA) according to the manufacturers’ protocol for capped transcripts and then injected in X. laevis oocytes. The oocytes were kept for 2–7 days at 16–17 °C in sterile ND-96 medium (96 mM NaCl, 2 mM KCl, 1.8 mM CaCl2, 1 mM MgCl2, 5 mM HEPES, pH 7.4) supplemented with 50 μg/mL gentamycin. Electrophysiological recordings were carried out at room temperature (22–24 °C) in Ca^2+-free solution (96 mM NaCl, 2 mM KCl, 1 mM MgCl2, 5 mM HEPES, pH 7.4) using the GeneClamp500 amplifier (Axon Instruments, Union City, CA, USA) at a holding potential of −50 mV. The data were filtered at 20 Hz and digitized at 100 Hz by an AD converter L780 (LCard, Moscow, Russia) using in-house software. Oocytes were impaled with two glass microelectrodes filled with 3 M KCl. Inward/outward currents were recorded at repeated every 4 seconds a stimuli comprising step from holding potential to −100 mV for 80 ms followed by voltage ramp from −100 mV to +100 mV for 200 ms and final step to holding potential. Diclofenac (300 μM in Ca^2+-free solution) was used to activate the channel.

[3] = inward current at −100 mV, read-out: EC50 of potentiation of diclofenac-induced inward TRPA1 current
[4] = outward current at +100 mV, read-out: EC50 of potentiation of diclofenac-induced outward TRPA1 current

T1 sequence (Q6RI86 whole entry): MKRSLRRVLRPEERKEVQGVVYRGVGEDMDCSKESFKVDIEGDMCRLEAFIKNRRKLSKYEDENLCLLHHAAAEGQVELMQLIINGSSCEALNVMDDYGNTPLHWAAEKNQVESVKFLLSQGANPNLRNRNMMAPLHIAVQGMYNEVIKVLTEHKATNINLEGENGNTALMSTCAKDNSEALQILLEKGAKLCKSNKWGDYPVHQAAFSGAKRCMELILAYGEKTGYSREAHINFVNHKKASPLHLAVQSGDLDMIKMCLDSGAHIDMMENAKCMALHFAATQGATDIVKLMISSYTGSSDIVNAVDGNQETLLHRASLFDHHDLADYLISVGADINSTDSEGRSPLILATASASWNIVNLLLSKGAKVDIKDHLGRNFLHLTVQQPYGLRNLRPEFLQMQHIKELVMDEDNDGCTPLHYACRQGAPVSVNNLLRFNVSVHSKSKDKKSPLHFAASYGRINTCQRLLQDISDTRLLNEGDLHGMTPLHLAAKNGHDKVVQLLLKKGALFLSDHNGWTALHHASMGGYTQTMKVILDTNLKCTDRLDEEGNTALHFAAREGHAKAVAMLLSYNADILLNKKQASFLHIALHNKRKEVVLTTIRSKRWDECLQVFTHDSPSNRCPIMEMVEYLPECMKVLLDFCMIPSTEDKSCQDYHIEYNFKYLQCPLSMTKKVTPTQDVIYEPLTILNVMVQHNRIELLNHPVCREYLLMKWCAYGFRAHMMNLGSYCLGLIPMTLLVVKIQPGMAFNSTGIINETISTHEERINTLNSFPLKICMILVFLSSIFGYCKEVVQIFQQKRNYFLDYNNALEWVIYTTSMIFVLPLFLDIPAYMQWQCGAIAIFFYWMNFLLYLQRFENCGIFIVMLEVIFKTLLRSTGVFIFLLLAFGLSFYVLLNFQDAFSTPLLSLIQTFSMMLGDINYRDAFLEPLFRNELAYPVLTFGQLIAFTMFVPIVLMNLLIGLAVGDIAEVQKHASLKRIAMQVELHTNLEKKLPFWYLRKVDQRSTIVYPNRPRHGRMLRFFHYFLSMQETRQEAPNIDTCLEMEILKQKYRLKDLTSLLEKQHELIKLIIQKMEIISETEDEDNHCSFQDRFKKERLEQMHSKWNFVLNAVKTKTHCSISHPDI

| SMILES | EC50 (TRPA1-expressing oocytes; X. laevis oocytes, read-out: EC50 of current increase in TRPA1-expressing oocytes) | Effect on uninjected oocytes of X. laevis (TRPA1-expressing oocytes; uninjected oocytes) | Pain or thermal hyperalgesia caused in vivo [1] | Diclofenac-induced inward current potentiated up to (maximal, % of control) ([2]; inward current at −100 mV) | EC50 [2, 3] | Diclofenac-induced outward current potentiated up to (maximal, % of control) ([2]; outward current at +100 mV) | EC50 [2, 4] | Maximal potentiating effect lower than that of Ms 9a-1 [2] | Increase of effective concentration (EC50) for inward current compared to Ms 9a-1 ([2]; inward current, relative to Ms 9a-1) |
| --- | --- | --- | --- | --- | --- | --- | --- | --- | --- |
| O=C(O)Cc1ccccc1Nc1c(Cl)cccc1Cl [Diclofenac] | 210 µM | no effect | – | – | – | – | – | – | – |
| CC[C@H](C)[C@@H]1NC(=O)[C@@H](NC(=O)CNC(=O)CNC(=O)[C@@H](NC(=O)[C@@H](NC(=O)[C@@H](NC(=O)[C@@H](N)CC(N)=O)[C@@H](C)CC)[C@@H](C)CC)C(C)C)CSSC[C@@H]2NC(=O)[C@H](CCCNC(=N)N)NC(=O)CNC(=O)[C@H](CO)NC(=O)[C@H](C)NC(=O)[C@H](CC(N)=O)NC(=O)[C@H](CCCCN)NC(=O)[C@H](C(C)C)NC(=O)[C@H](Cc3c[nH]cn3)NC(=O)[C@H](CSSC[C@@H](C(=O)NCC(=O)N[C@H](C(=O)N[C@@H](CC(=O)O)C(=O)N[C@@H](CCCCN)C(=O)N[C@H](C(=O)N3CCC[C@H]3C(=O)N[C@@H](CC(=O)O)C(=O)N[C@@H](CC(C)C)C(=O)N[C@@H](Cc3ccccc3)C(=O)N[C@@H](CO)C(=O)O)C(C)C)C(C)C)NC(=O)CNC(=O)[C@H](C(C)C)NC(=O)[C@H]([C@@H](C)CC)NC(=O)[C@H](CCCNC(=N)N)NC(=O)[C@H](C(C)C)NC2=O)NC(=O)[C@H](CCCCN)NC1=O [Ms 9a-1] (H-NIIVGGCIKCHVKNASGRCVRIVGCGVDKVPDLFS-OH; disulfide 7-19, 10-25) | – | – | does not cause pain or thermal hyperalgesia | 190% | 210 ± 3 nM | 175% | 32 ± 7 nM | – | – |
| CC[C@H](C)[C@@H]1NC(=O)[C@H](CCCNC(=N)N)NC(=O)[C@H](C(C)C)NC(=O)[C@@H]2CSSC[C@H](NC(=O)CNC(=O)CNC(=O)[C@@H](NC(=O)[C@@H](NC(=O)[C@@H](NC(=O)[C@@H](N)CC(N)=O)[C@@H](C)CC)[C@@H](C)CC)C(C)C)C(=O)N[C@@H](CO)C(=O)N[C@@H](CCCCN)C(=O)N[C@@H](CSSC[C@@H](C(=O)NCC(=O)N[C@H](C(=O)O)C(C)C)NC(=O)CNC(=O)[C@H](C)NC1=O)C(=O)N[C@@H](Cc1c[nH]cn1)C(=O)N[C@@H](CCCCN)C(=O)N[C@@H](CCC(N)=O)C(=O)N[C@@H](CC(=O)O)C(=O)N[C@@H](CO)C(=O)N[C@@H](CO)C(=O)NCC(=O)N[C@@H](CC(N)=O)C(=O)N2 [Ms 9a-2] (H-NIIVGGCSKCHKQDSSGNCVRIAGCGV-OH; disulfide 7-19, 10-25) | – | – | – | 139% | 412 ± 48 nM | 131% | 606 ± 201 nM | 45–50% | 3 times |
| CC[C@H](C)[C@@H]1NC(=O)[C@H](CCCNC(=N)N)NC(=O)[C@H](C(C)C)NC(=O)[C@@H]2CSSC[C@H](NC(=O)CNC(=O)CNC(=O)[C@@H](NC(=O)[C@@H](NC(=O)[C@@H](NC(=O)[C@@H](N)CC(N)=O)[C@@H](C)CC)[C@@H](C)CC)C(C)C)C(=O)N[C@@H](CO)C(=O)N[C@@H](CCCCN)C(=O)N[C@@H](CSSC[C@@H](C(=O)NCC(=O)N[C@H](C(=O)O)C(C)C)NC(=O)CNC(=O)[C@H](C)NC1=O)C(=O)N[C@@H](Cc1c[nH]cn1)C(=O)N[C@@H]([C@@H](C)O)C(=O)N[C@@H](CCC(=O)O)C(=O)N[C@@H](CC(=O)O)C(=O)N[C@@H](CO)C(=O)N[C@@H](CC(N)=O)C(=O)NCC(=O)N[C@@H](CC(N)=O)C(=O)N2 [Ms 9a-3] (H-NIIVGGCSKCHTEDSNGNCVRIAGCGV-OH; disulfide 7-19, 10-25) | – | – | – | 159% | 5440 ± 2900 nM | 175% | 7800 ± 600 nM | 15–30% | – |
